# Reference: PMC5218480 (PLoS ONE, 2017)
# Tested on: MV-4-11 cells
# Experiment: Gene expression microarray analysis (Affymetrix PrimeView) and GSEA
# Assay type: cell-based, human
# Parameters: RFU PODN (11730768_x_at) / Fold change /veh PODN (11730768_x_at) / RFU LINC00158 (11744669_a_at) / Fold change /veh LINC00158 (11744669_a_at) / RFU DUSP10 (11751237_a_at) / Fold change /veh DUSP10 (11751237_a_at) / RFU ID3 (11757404_x_at) / Fold change /veh ID3 (11757404_x_at) / RFU PLEKHG5 (11737974_s_at) / Fold change /veh PLEKHG5 (11737974_s_at) / RFU LRRC4B (11730491_at) / Fold change /veh LRRC4B (11730491_at) / RFU GIMAP4 (11747438_a_at) / Fold change /veh GIMAP4 (11747438_a_at) / RFU KRT8 (11758183_x_at) / Fold change /veh KRT8 (11758183_x_at) / RFU CNN1 (11734310_a_at) / Fold change /veh CNN1 (11734310_a_at) / RFU VPS37D (11726825_at) / Fold change /veh VPS37D (11726825_at) / RFU C10orf10 (11716522_x_at) / Fold change /veh C10orf10 (11716522_x_at) / RFU KIR2DL2 /// KIR2DL4 /// KIR2DL5A /// KIR2DL5B /// KIR2DS1 /// KIR2DS2 /// KIR2DS3 /// KIR2DS4 /// KIR3DL3 /// KIR3DL3 /// KIR3DS1 (11738374_at) / Fold change /veh KIR2DL2 /// KIR2DL4 /// KIR2DL5A /// KIR2DL5B /// KIR2DS1 /// KIR2DS2 /// KIR2DS3 /// KIR2DS4 /// KIR3DL3 /// KIR3DL3 /// KIR3DS1 (11738374_at) / RFU C1QL1 (11718748_at) / Fold change /veh C1QL1 (11718748_at) / RFU TMPRSS4 (11747572_a_at) / Fold change /veh TMPRSS4 (11747572_a_at) / RFU HAMP (11756126_x_at) / Fold change /veh HAMP (11756126_x_at) / RFU RNFT2 (11725882_a_at) / Fold change /veh RNFT2 (11725882_a_at) / RFU NR4A2 (11747474_a_at) / Fold change /veh NR4A2 (11747474_a_at) / RFU ABCC12 (11746883_a_at) / Fold change /veh ABCC12 (11746883_a_at) / RFU TMEM136 (11760407_x_at) / Fold change /veh TMEM136 (11760407_x_at) / RFU CLDN22 /// WWC2 (11732394_at) / Fold change /veh CLDN22 /// WWC2 (11732394_at) / RFU HLA-DPB1 (11760878_x_at) / Fold change /veh HLA-DPB1 (11760878_x_at) / RFU SPINT1 (11716480_a_at) / Fold change /veh SPINT1 (11716480_a_at) / RFU GAP43 (11754022_s_at) / Fold change /veh GAP43 (11754022_s_at) / RFU A4GNT (11735810_at) / Fold change /veh A4GNT (11735810_at) / RFU PRB3 (11715151_x_at) / Fold change /veh PRB3 (11715151_x_at) / RFU TUBB4B (11761932_at) / Fold change /veh TUBB4B (11761932_at) / RFU CAPN14 (11732068_a_at) / Fold change /veh CAPN14 (11732068_a_at) / RFU TMCC2 (11721928_a_at) / Fold change /veh TMCC2 (11721928_a_at) / RFU IRGQ (11745062_a_at) / Fold change /veh IRGQ (11745062_a_at) / RFU FAM174B (11720279_a_at) / Fold change /veh FAM174B (11720279_a_at) / RFU TMPRSS4 (11748680_a_at) / Fold change /veh TMPRSS4 (11748680_a_at) / RFU FAM212B (11763350_a_at) / Fold change /veh FAM212B (11763350_a_at) / RFU PLEKHG5 (11743358_a_at) / Fold change /veh PLEKHG5 (11743358_a_at) / RFU ZSCAN30 (11745921_a_at) / Fold change /veh ZSCAN30 (11745921_a_at) / RFU CMKLR1 (11741424_a_at) / Fold change /veh CMKLR1 (11741424_a_at) / RFU LOC101060620 /// MAPK8IP1 (11723275_at) / Fold change /veh LOC101060620 /// MAPK8IP1 (11723275_at) / RFU SPTSSB (11747773_x_at) / Fold change /veh SPTSSB (11747773_x_at) / RFU PRSS12 (11739890_at) / Fold change /veh PRSS12 (11739890_at) / RFU BIN1 (11741810_x_at) / Fold change /veh BIN1 (11741810_x_at) / RFU WNT11 (11732464_a_at) / Fold change /veh WNT11 (11732464_a_at) / RFU C10orf10 (11716521_a_at) / Fold change /veh C10orf10 (11716521_a_at) / RFU C5orf56 (11738089_at) / Fold change /veh C5orf56 (11738089_at) / RFU CYB561 (11721691_x_at) / Fold change /veh CYB561 (11721691_x_at) / RFU ANKRD19P (11752326_a_at) / Fold change /veh ANKRD19P (11752326_a_at) / RFU OR2T12 /// OR2T33 /// OR2T8 (11738714_s_at) / Fold change /veh OR2T12 /// OR2T33 /// OR2T8 (11738714_s_at) / RFU VCAN (11748164_a_at) / Fold change /veh VCAN (11748164_a_at) / RFU JSRP1 (11732532_at) / Fold change /veh JSRP1 (11732532_at) / RFU KRTAP10-11 (11738290_x_at) / Fold change /veh KRTAP10-11 (11738290_x_at) / RFU MYO3A (11730013_a_at) / Fold change /veh MYO3A (11730013_a_at) / RFU EBF3 (11725865_a_at) / Fold change /veh EBF3 (11725865_a_at) / RFU CAMK2N1 (11719241_x_at) / Fold change /veh CAMK2N1 (11719241_x_at) / RFU C5orf56 (11738088_a_at) / Fold change /veh C5orf56 (11738088_a_at) / RFU OLFML3 (11715873_a_at) / Fold change /veh OLFML3 (11715873_a_at) / RFU LOC100653217 /// NTM (11731650_a_at) / Fold change /veh LOC100653217 /// NTM (11731650_a_at) / RFU MAPK11 (11762145_a_at) / Fold change /veh MAPK11 (11762145_a_at) / RFU FIZ1 (11724087_x_at) / Fold change /veh FIZ1 (11724087_x_at) / RFU OASL (11726364_x_at) / Fold change /veh OASL (11726364_x_at) / RFU SOX15 (11748057_x_at) / Fold change /veh SOX15 (11748057_x_at) / RFU CD79A (11719716_a_at) / Fold change /veh CD79A (11719716_a_at) / RFU HIST1H1D (11736915_at) / Fold change /veh HIST1H1D (11736915_at) / RFU CASKIN2 (11723855_a_at) / Fold change /veh CASKIN2 (11723855_a_at) / RFU LOC730098 (11760151_x_at) / Fold change /veh LOC730098 (11760151_x_at) / RFU OR4N2 (11742367_at) / Fold change /veh OR4N2 (11742367_at) / RFU PRRT2 (11749266_a_at) / Fold change /veh PRRT2 (11749266_a_at) / RFU SNX32 (11753110_a_at) / Fold change /veh SNX32 (11753110_a_at) / RFU CDHR5 (11726645_a_at) / Fold change /veh CDHR5 (11726645_a_at) / RFU RCAN1 (11760418_a_at) / Fold change /veh RCAN1 (11760418_a_at) / RFU FAM167A (11723789_a_at) / Fold change /veh FAM167A (11723789_a_at) / RFU FAM26E (11764081_at) / Fold change /veh FAM26E (11764081_at) / RFU ISYNA1 (11749810_s_at) / Fold change /veh ISYNA1 (11749810_s_at) / RFU ACY1 (11761880_at) / Fold change /veh ACY1 (11761880_at) / RFU 11764098_at / Fold change /veh 11764098_at / RFU SAMD14 (11745864_x_at) / Fold change /veh SAMD14 (11745864_x_at) / RFU NPB (11741838_a_at) / Fold change /veh NPB (11741838_a_at) / RFU TMPRSS6 (11731388_a_at) / Fold change /veh TMPRSS6 (11731388_a_at) / RFU KRTAP10-2 (11738614_at) / Fold change /veh KRTAP10-2 (11738614_at) / RFU ARHGAP8 /// PRR5-ARHGAP8 (11727945_x_at) / Fold change /veh ARHGAP8 /// PRR5-ARHGAP8 (11727945_x_at) / RFU KRTAP5-7 /// NADSYN1 (11734609_at) / Fold change /veh KRTAP5-7 /// NADSYN1 (11734609_at) / RFU RASL12 (11751679_a_at) / Fold change /veh RASL12 (11751679_a_at) / RFU CDKN2B (11736163_a_at) / Fold change /veh CDKN2B (11736163_a_at) / RFU PRF1 (11729649_at) / Fold change /veh PRF1 (11729649_at) / RFU, ZNF638 /// ZNF638-IT1 / Fold change vs veh, ZNF638 /// ZNF638-IT1 / RFU, PANK3 / Fold change vs veh, PANK3 / RFU, SH3YL1 / Fold change vs veh, SH3YL1 / RFU, ZEB2 / Fold change vs veh, ZEB2 / RFU, NRIP1 / Fold change vs veh, NRIP1 / RFU, PTTG1IP / Fold change vs veh, PTTG1IP / RFU, CAPN2 / Fold change vs veh, CAPN2 / RFU, MED14 / Fold change vs veh, MED14 / RFU, SNORA58 / Fold change vs veh, SNORA58 / RFU, C1orf63 / Fold change vs veh, C1orf63 / RFU, LRRFIP1 / Fold change vs veh, LRRFIP1 / RFU, NDUFAF7 / Fold change vs veh, NDUFAF7 / RFU, SLC12A2 / Fold change vs veh, SLC12A2 / RFU, IBTK / Fold change vs veh, IBTK / RFU, ESF1 / Fold change vs veh, ESF1 / Fold change vs veh, TMEM50B / RFU, TAOK1 / Fold change vs veh, TAOK1 / RFU, ACBD3 / Fold change vs veh, ACBD3 / RFU, TMA16 / Fold change vs veh, TMA16 / RFU, RWDD3 / Fold change vs veh, RWDD3 / RFU, BCAT1 / Fold change vs veh, BCAT1 / RFU, EDEM3 / Fold change vs veh, EDEM3 / RFU, TMEM33 / Fold change vs veh, TMEM33 / RFU, WDR75 / Fold change vs veh, WDR75 / RFU, AHCTF1 / Fold change vs veh, AHCTF1 / RFU, TFRC / Fold change vs veh, TFRC / RFU, ZDHHC17 / Fold change vs veh, ZDHHC17 / RFU, NOM1 / Fold change vs veh, NOM1 / RFU, ARL8B / Fold change vs veh, ARL8B / RFU, ZBTB11 / Fold change vs veh, ZBTB11 / RFU, TAMM41 / Fold change vs veh, TAMM41 / RFU, KIAA1704 /// LOC100996395 / Fold change vs veh, KIAA1704 /// LOC100996395 / RFU, ING1 / Fold change vs veh, ING1 / RFU, TRMT61B / Fold change vs veh, TRMT61B / RFU, FUBP3 / Fold change vs veh, FUBP3 / RFU, TP53 / Fold change vs veh, TP53 / RFU, TNKS2 / Fold change vs veh, TNKS2 / RFU, ZFP14 / Fold change vs veh, ZFP14 / RFU, ACTR2 / Fold change vs veh, ACTR2 / RFU, PPP3R1 / Fold change vs veh, PPP3R1 / RFU, PIK3R1 / Fold change vs veh, PIK3R1 / RFU, HNRNPA1 / Fold change vs veh, HNRNPA1 / RFU, RNF170 / Fold change vs veh, RNF170 / RFU, ZNF28 / Fold change vs veh, ZNF28 / RFU, RNGTT / Fold change vs veh, RNGTT / RFU, OGT / Fold change vs veh, OGT / RFU, BRD1 / Fold change vs veh, BRD1 / RFU, MARS / Fold change vs veh, MARS / RFU, ZNF655 / Fold change vs veh, ZNF655 / RFU, FAHD1 / Fold change vs veh, FAHD1 / RFU, BDP1 / Fold change vs veh, BDP1 / RFU, LRRCC1 / Fold change vs veh, LRRCC1 / RFU, ARID1A / Fold change vs veh, ARID1A / RFU, ZNF146 / Fold change vs veh, ZNF146 / RFU, ZNF330 / Fold change vs veh, ZNF330 / RFU, GPN3 / Fold change vs veh, GPN3 / RFU, C9orf123 / Fold change vs veh, C9orf123 / RFU, N4BP2L2 / Fold change vs veh, N4BP2L2 / RFU, ARFIP1 / Fold change vs veh, ARFIP1 / RFU, FAM179B / Fold change vs veh, FAM179B / RFU, BCL10 / Fold change vs veh, BCL10 / RFU, UHRF1BP1L / Fold change vs veh, UHRF1BP1L / RFU, BET1 / Fold change vs veh, BET1 / RFU, CNOT2 / Fold change vs veh, CNOT2 / RFU, ZNF268 / Fold change vs veh, ZNF268 / Fold change vs veh, ZNF507 / RFU, DGCR2 / Fold change vs veh, DGCR2 / RFU, WDSUB1 / Fold change vs veh, WDSUB1 / Fold change vs veh, HSP90B1 /// MIR3652 / RFU, ADSS / Fold change vs veh, ADSS / RFU, GK / Fold change vs veh, GK / RFU, ZNF148 / Fold change vs veh, ZNF148 / RFU, TAF9 / Fold change vs veh, TAF9 / RFU, SLC1A5 / Fold change vs veh, SLC1A5 / RFU, SLMO2 / Fold change vs veh, SLMO2 / RFU, ABCC4 / Fold change vs veh, ABCC4 / RFU, LOC101060439 /// RAP1B / Fold change vs veh, LOC101060439 /// RAP1B / RFU, RFX7 / Fold change vs veh, RFX7 / RFU, GTPBP10 / Fold change vs veh, GTPBP10 / RFU, CNEP1R1 / Fold change vs veh, CNEP1R1 / RFU, BIVM-ERCC5 /// ERCC5 / Fold change vs veh, BIVM-ERCC5 /// ERCC5 / RFU, ILF3 / Fold change vs veh, ILF3 / RFU 11762660_at / Fold change /veh 11762660_at / RFU VCAN (11757783_s_at) / Fold change /veh VCAN (11757783_s_at) / RFU DDX43 (11728927_at) / Fold change /veh DDX43 (11728927_at) / RFU KRT8 (11758188_x_at) / Fold change /veh KRT8 (11758188_x_at) / RFU NKD1 (11759106_at) / Fold change /veh NKD1 (11759106_at) / RFU SRD5A1 (11742802_a_at) / Fold change /veh SRD5A1 (11742802_a_at) / RFU TPSAB1 /// TPSB2 (11721975_s_at) / Fold change /veh TPSAB1 /// TPSB2 (11721975_s_at) / RFU GSTM3 (11746129_a_at) / Fold change /veh GSTM3 (11746129_a_at) / RFU IL23R (11737362_x_at) / Fold change /veh IL23R (11737362_x_at) / RFU TMEM51 (11727254_a_at) / Fold change /veh TMEM51 (11727254_a_at) / RFU PIWIL2 (11732686_x_at) / Fold change /veh PIWIL2 (11732686_x_at) / RFU ORM1 (11744905_x_at) / Fold change /veh ORM1 (11744905_x_at) / RFU CCDC152 (11743942_at) / Fold change /veh CCDC152 (11743942_at) / RFU ECM1 (11717891_a_at) / Fold change /veh ECM1 (11717891_a_at) / RFU IL23R (11748794_a_at) / Fold change /veh IL23R (11748794_a_at) / RFU TNFAIP8L3 (11732012_x_at) / Fold change /veh TNFAIP8L3 (11732012_x_at) / RFU MBOAT4 (11741988_at) / Fold change /veh MBOAT4 (11741988_at) / RFU 11764193_at / Fold change /veh 11764193_at / RFU TMEM53 (11763286_at) / Fold change /veh TMEM53 (11763286_at) / RFU MAGEB2 (11727129_at) / Fold change /veh MAGEB2 (11727129_at) / RFU TMEM200A (11744735_a_at) / Fold change /veh TMEM200A (11744735_a_at) / RFU CCDC152 (11751479_a_at) / Fold change /veh CCDC152 (11751479_a_at) / RFU FAM211A (11726209_a_at) / Fold change /veh FAM211A (11726209_a_at) / RFU RGS16 (11746705_a_at) / Fold change /veh RGS16 (11746705_a_at) / RFU VCAN (11755009_s_at) / Fold change /veh VCAN (11755009_s_at) / RFU RHOB (11743442_s_at) / Fold change /veh RHOB (11743442_s_at) / RFU RGS16 (11720943_a_at) / Fold change /veh RGS16 (11720943_a_at) / RFU RGS16 (11720944_at) / Fold change /veh RGS16 (11720944_at) / RFU, VPS4B / Fold change vs veh, VPS4B / RFU, CREB1 / Fold change vs veh, CREB1 / RFU, DNAJC13 / Fold change vs veh, DNAJC13 / RFU, GNAQ / Fold change vs veh, GNAQ / RFU, CDK5R1 / Fold change vs veh, CDK5R1 / RFU, ZRANB3 / Fold change vs veh, ZRANB3 / RFU, CUL4A / Fold change vs veh, CUL4A / RFU, CCNY / Fold change vs veh, CCNY / RFU, UFL1 / Fold change vs veh, UFL1 / RFU, COG3 / Fold change vs veh, COG3 / RFU, DIAPH2 / Fold change vs veh, DIAPH2 / RFU, SKA2 / Fold change vs veh, SKA2 / RFU, AFF3 / Fold change vs veh, AFF3 / RFU, LMF1 / Fold change vs veh, LMF1 / RFU, IPO11 / Fold change vs veh, IPO11 / RFU, DFFB / Fold change vs veh, DFFB / RFU, FOXP1 / Fold change vs veh, FOXP1 / RFU, CARD8 / Fold change vs veh, CARD8 / RFU, STRN3 / Fold change vs veh, STRN3 / RFU, ADK / Fold change vs veh, ADK / RFU, RASSF2 / Fold change vs veh, RASSF2 / RFU, WIPF1 / Fold change vs veh, WIPF1 / RFU, LARP1B / Fold change vs veh, LARP1B / RFU, RASA1 / Fold change vs veh, RASA1 / RFU, RB1 / Fold change vs veh, RB1 / RFU, PPFIA1 / Fold change vs veh, PPFIA1 / RFU, MAT2A / Fold change vs veh, MAT2A / RFU, CCT5 / Fold change vs veh, CCT5 / RFU, WDR92 / Fold change vs veh, WDR92 / RFU, CUX1 / Fold change vs veh, CUX1 / RFU, TTC7A / Fold change vs veh, TTC7A / RFU, TMEM135 / Fold change vs veh, TMEM135 / RFU, DEPTOR / Fold change vs veh, DEPTOR / RFU, CPM / Fold change vs veh, CPM / RFU, DNAJB6 / Fold change vs veh, DNAJB6 / RFU, CACNA2D3 / Fold change vs veh, CACNA2D3 / RFU, DTX4 / Fold change vs veh, DTX4 / RFU, TFCP2 / Fold change vs veh, TFCP2 / RFU, GMCL1 /// GMCL1P1 / Fold change vs veh, GMCL1 /// GMCL1P1 / RFU, AEBP2 / Fold change vs veh, AEBP2 / RFU, SNHG1 /// SNORD22 /// SNORD25 /// SNORD26 /// SNORD27 /// SNORD28 /// SNORD29 /// SNORD31 / Fold change vs veh, SNHG1 /// SNORD22 /// SNORD25 /// SNORD26 /// SNORD27 /// SNORD28 /// SNORD29 /// SNORD31 / Fold change (Aza/veh), C12orf56 (ProbeSet 11735607_a_at) / Fold change (ACY-1035/veh), C12orf56 (ProbeSet 11735607_a_at) / Fold change (Aza/veh), FGFR1OP (ProbeSet 11751329_s_at) / Fold change (ACY-1035/veh), FGFR1OP (ProbeSet 11751329_s_at) / Fold change (Aza/veh), VPS36 (ProbeSet 11739960_a_at) / Fold change (ACY-1035/veh), VPS36 (ProbeSet 11739960_a_at) / RFU SYPL1 (11715823_x_at) / Fold change /veh SYPL1 (11715823_x_at) / RFU IGFBP7 (11715501_s_at) / Fold change /veh IGFBP7 (11715501_s_at) / RFU REEP3 (11722064_at) / Fold change /veh REEP3 (11722064_at) / RFU IGLL1 (11728026_x_at) / Fold change /veh IGLL1 (11728026_x_at): dose or concentration left out as unconfirmed
# Settings: MV-4-11 cells, 48 hours
compound,measurement,value
Nc1ncn([C@@H]2O[C@H](CO)[C@@H](O)[C@H]2O)c(=O)n1 [azacitidine],Fold change /veh KIR2DL2 /// KIR2DL4 /// KIR2DL5A /// KIR2DL5B /// KIR2DS1 /// KIR2DS2 /// KIR2DS3 /// KIR2DS4 /// KIR3DL3 /// KIR3DL3 /// KIR3DS1 (11738374_at),0.92
